In PubChem BioAssay (NCI):
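Exposure lasted 48 hours, with cells grown in 96-well plates and compounds tested at five concentrations. Here, GI50 denotes the concentration required for 50% inhibition of growth. The concentration for full growth arrest is given as TGI.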

How the values were obtained:
Assay in all cases: growth of human tumour cells (NCI), 48 h
HS 578T breast = test system: HS 578T breast
786-0 renal = test system: 786-0 renal
RPMI-8226 leukemia = test system: RPMI-8226 leukemia
EKVX NSCLC = test system: EKVX NSCLC
HOP-92 NSCLC = test system: HOP-92 NSCLC
SF-539 CNS = test system: SF-539 CNS
SK-MEL-2 melanoma = test system: SK-MEL-2 melanoma
M14 melanoma = test system: M14 melanoma
NCI/ADR-RES ovarian = test system: NCI/ADR-RES ovarian
NCI-H23 lung = test system: NCI-H23 lung
SW-620 colon = test system: SW-620 colon
MALME-3M melanoma = test system: MALME-3M melanoma
OVCAR-8 ovarian = test system: OVCAR-8 ovarian
UO-31 renal = test system: UO-31 renal
ACHN renal = test system: ACHN renal
OVCAR-3 ovarian = test system: OVCAR-3 ovarian
DU-145 prostate = test system: DU-145 prostate
A549 NSCLC = test system: A549 NSCLC
PC-3 prostate = test system: PC-3 prostate
T-47D breast = test system: T-47D breast
CAKI-1 renal = test system: CAKI-1 renal
MDA-MB-435 = test system: MDA-MB-435
NCI-H522 lung = test system: NCI-H522 lung
MDA-MB-231 breast = test system: MDA-MB-231 breast
SN12C renal = test system: SN12C renal
CCRF-CEM leukemia = test system: CCRF-CEM leukemia
SK-MEL-28 melanoma = test system: SK-MEL-28 melanoma
SK-OV-3 ovarian = test system: SK-OV-3 ovarian
MCF7 breast = test system: MCF7 breast
OVCAR-5 ovarian = test system: OVCAR-5 ovarian
SF-268 CNS = test system: SF-268 CNS
U251 CNS = test system: U251 CNS
SNB-19 CNS = test system: SNB-19 CNS
HOP-62 NSCLC = test system: HOP-62 NSCLC
K-562 leukemia = test system: K-562 leukemia
NCI-H226 lung = test system: NCI-H226 lung
LOX IMVI melanoma = test system: LOX IMVI melanoma
A498 renal = test system: A498 renal
SR leukemia = test system: SR leukemia
UACC-62 melanoma = test system: UACC-62 melanoma
HCT-116 colon = test system: HCT-116 colon
NCI-H460 lung = test system: NCI-H460 lung
OVCAR-4 ovarian = test system: OVCAR-4 ovarian
HCC-2998 colon = test system: HCC-2998 colon
SK-MEL-5 melanoma = test system: SK-MEL-5 melanoma
RXF 393 renal = test system: RXF 393 renal
BT-549 breast = test system: BT-549 breast
UACC-257 melanoma = test system: UACC-257 melanoma
SF-295 CNS = test system: SF-295 CNS
TK-10 renal = test system: TK-10 renal
HL-60(TB) leukemia = test system: HL-60(TB) leukemia
HCT-15 colon = test system: HCT-15 colon
SNB-75 CNS = test system: SNB-75 CNS
COLO 205 colon = test system: COLO 205 colon
HT29 colon = test system: HT29 colon
KM12 colon = test system: KM12 colon
MOLT-4 leukemia = test system: MOLT-4 leukemia
IGROV1 ovarian = test system: IGROV1 ovarian

## Cc1[nH]c(C(=O)Nc2ccc(S(=O)(=O)N3CCCCC3)cc2OCCOCCOCCOCCOCCOCCOCCOCCOCCOc2cc(S(=O)(=O)N3CCCCC3)ccc2NC(=O)c2[nH]c(C)c3c2CCCCC3=O)c2c1C(=O)CCCC2
HS 578T breast
  GI50: 375 nM
  TGI: > 21900 nM
786-0 renal
  GI50: 1690 nM
  TGI: > 100000 nM
RPMI-8226 leukemia
  GI50: 325 nM
EKVX NSCLC
  GI50: 2970 nM
  TGI: > 100000 nM
HOP-92 NSCLC
  GI50: 433 nM
  TGI: > 100000 nM
SF-539 CNS
  GI50: 599 nM
  TGI: > 100000 nM
SK-MEL-2 melanoma
  GI50: 768 nM
M14 melanoma
  GI50: 1010 nM
  TGI: > 100000 nM
NCI/ADR-RES ovarian
  GI50: > 100000 nM
  TGI: > 100000 nM
NCI-H23 lung
  GI50: 2380 nM
  TGI: > 100000 nM
SW-620 colon
  GI50: 2050 nM
  TGI: > 100000 nM
MALME-3M melanoma
  GI50: 909 nM
  TGI: > 23500 nM
OVCAR-8 ovarian
  GI50: 1670 nM
  TGI: > 100000 nM
UO-31 renal
  GI50: 4830 nM
  TGI: > 100000 nM
ACHN renal
  GI50: 17400 nM
  TGI: > 100000 nM
OVCAR-3 ovarian
  GI50: 483 nM
DU-145 prostate
  GI50: 4990 nM
  TGI: > 100000 nM
A549 NSCLC
  GI50: 2390 nM
  TGI: > 100000 nM
PC-3 prostate
  GI50: 1090 nM
  TGI: > 100000 nM
T-47D breast
  GI50: 489 nM
  TGI: > 100000 nM
CAKI-1 renal
  GI50: 841 nM
  TGI: > 100000 nM
MDA-MB-435
  GI50: 766 nM
  TGI: > 100000 nM
NCI-H522 lung
  GI50: 190 nM
  TGI: 1210 nM
MDA-MB-231 breast
  GI50: 776 nM
  TGI: > 100000 nM
SN12C renal
  GI50: 1480 nM
  TGI: > 100000 nM
CCRF-CEM leukemia
  GI50: 1290 nM
  TGI: > 100000 nM
SK-MEL-28 melanoma
  GI50: 1590 nM
  TGI: > 100000 nM
SK-OV-3 ovarian
  GI50: 286 nM
  TGI: 806 nM
MCF7 breast
  GI50: 95 nM
  TGI: > 100000 nM
OVCAR-5 ovarian
  GI50: 3260 nM
  TGI: > 100000 nM
SF-268 CNS
  GI50: 2290 nM
  TGI: > 100000 nM
U251 CNS
  GI50: 1400 nM
  TGI: > 100000 nM
SNB-19 CNS
  GI50: 1020 nM
  TGI: > 100000 nM
HOP-62 NSCLC
  GI50: 1110 nM
  TGI: > 100000 nM
K-562 leukemia
  GI50: 435 nM
  TGI: > 100000 nM
NCI-H226 lung
  GI50: 542 nM
  TGI: 8730 nM
LOX IMVI melanoma
  GI50: 169 nM
  TGI: 639 nM
A498 renal
  GI50: 1210 nM
SR leukemia
  GI50: 107 nM
  TGI: > 32500 nM
UACC-62 melanoma
  GI50: 461 nM
  TGI: 3710 nM
HCT-116 colon
  GI50: 538 nM
  TGI: 4410 nM
NCI-H460 lung
  GI50: 1770 nM
  TGI: > 100000 nM
OVCAR-4 ovarian
  GI50: 909 nM
  TGI: > 29700 nM
HCC-2998 colon
  GI50: 296 nM
  TGI: 1120 nM
SK-MEL-5 melanoma
  GI50: 3920 nM
  TGI: > 89800 nM
RXF 393 renal
  GI50: 1260 nM
  TGI: > 100000 nM
BT-549 breast
  GI50: 911 nM
  TGI: > 100000 nM
UACC-257 melanoma
  GI50: 944 nM
SF-295 CNS
  GI50: 2830 nM
  TGI: > 100000 nM
TK-10 renal
  GI50: 2050 nM
  TGI: > 100000 nM
HL-60(TB) leukemia
  GI50: 108 nM
HCT-15 colon
  GI50: 12900 nM
  TGI: > 100000 nM
SNB-75 CNS
  GI50: 78.8 nM
  TGI: 1180 nM
COLO 205 colon
  GI50: 1170 nM
  TGI: > 100000 nM
HT29 colon
  GI50: 648 nM
  TGI: > 19800 nM
KM12 colon
  GI50: 1680 nM
  TGI: > 100000 nM
MOLT-4 leukemia
  GI50: 861 nM
  TGI: > 32800 nM
IGROV1 ovarian
  GI50: 480 nM
